Test results published in ChEMBL document CHEMBL1138823, “Diaminopyrimidine and diaminopyridine 5-HT7 ligands” (Bioorg Med Chem Lett, 2004).

How the values were obtained:
[1] = target: 5-hydroxytryptamine receptor 7 (Homo sapiens, UniProt P34969); assay: Binding affinity against 5-Hydroxy tryptamine 7 receptor
[2] = target: D(2) dopamine receptor (Homo sapiens, UniProt P14416); assay: Binding affinity against D2L receptor
[3] = target: 5-hydroxytryptamine receptor 2C (Rattus norvegicus) (UniProt P08909); assay: Binding affinity against 5-Hydroxy tryptamine 2C receptor
5-hydroxytryptamine receptor 2C (Rattus norvegicus), sequence (P08909 whole entry, looked up): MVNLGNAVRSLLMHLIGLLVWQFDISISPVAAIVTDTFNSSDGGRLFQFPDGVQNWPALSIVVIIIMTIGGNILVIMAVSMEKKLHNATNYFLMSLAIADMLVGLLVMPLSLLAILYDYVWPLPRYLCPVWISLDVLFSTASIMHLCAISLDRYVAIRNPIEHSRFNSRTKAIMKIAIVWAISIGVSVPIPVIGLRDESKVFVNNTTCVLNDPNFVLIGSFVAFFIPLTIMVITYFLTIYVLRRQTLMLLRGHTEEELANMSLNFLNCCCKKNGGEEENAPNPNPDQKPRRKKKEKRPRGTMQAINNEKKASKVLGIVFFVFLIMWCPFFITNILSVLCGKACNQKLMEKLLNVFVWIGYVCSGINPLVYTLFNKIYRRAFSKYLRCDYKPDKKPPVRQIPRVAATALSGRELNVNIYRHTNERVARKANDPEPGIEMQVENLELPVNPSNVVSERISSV

[4] = target: Adrenergic receptor alpha-1 (Rattus norvegicus); assay: Binding affinity against Alpha1 adrenergic receptor

5-hydroxytryptamine receptor 7, sequence (P34969 whole entry): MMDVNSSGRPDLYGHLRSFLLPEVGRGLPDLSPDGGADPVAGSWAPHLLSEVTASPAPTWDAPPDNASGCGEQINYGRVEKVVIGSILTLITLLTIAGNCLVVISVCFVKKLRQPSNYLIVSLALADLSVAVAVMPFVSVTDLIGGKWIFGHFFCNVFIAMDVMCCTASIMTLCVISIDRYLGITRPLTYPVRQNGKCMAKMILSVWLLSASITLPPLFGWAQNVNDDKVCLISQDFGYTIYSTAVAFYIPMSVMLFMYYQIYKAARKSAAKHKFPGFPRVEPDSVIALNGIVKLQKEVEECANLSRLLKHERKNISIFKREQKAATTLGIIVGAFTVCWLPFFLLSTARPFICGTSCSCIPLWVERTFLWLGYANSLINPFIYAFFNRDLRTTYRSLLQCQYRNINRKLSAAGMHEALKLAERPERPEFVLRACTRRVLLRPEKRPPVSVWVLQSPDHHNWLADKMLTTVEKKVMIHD
D(2) dopamine receptor, sequence (P14416 whole entry): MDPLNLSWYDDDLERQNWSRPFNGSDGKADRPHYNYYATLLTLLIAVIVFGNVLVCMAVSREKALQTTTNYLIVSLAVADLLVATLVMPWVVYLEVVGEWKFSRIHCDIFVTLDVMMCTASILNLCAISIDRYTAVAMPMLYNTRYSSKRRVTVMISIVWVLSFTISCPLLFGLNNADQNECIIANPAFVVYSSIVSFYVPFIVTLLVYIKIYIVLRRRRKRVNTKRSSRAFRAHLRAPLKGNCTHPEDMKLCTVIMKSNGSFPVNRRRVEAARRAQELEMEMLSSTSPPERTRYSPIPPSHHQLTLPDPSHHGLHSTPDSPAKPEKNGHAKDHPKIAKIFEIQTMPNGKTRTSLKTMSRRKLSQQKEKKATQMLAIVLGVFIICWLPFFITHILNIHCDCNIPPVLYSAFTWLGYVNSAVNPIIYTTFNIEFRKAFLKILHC

| SMILES | Ki [1] [nM] | Ki [2] [nM] | Ki [3] [nM] | Ki [4] [nM] |
| --- | --- | --- | --- | --- |
| C[C@H](Nc1cc(NCCc2ccccc2)ncn1)c1ccccc1 | 33 |  |  |  |
| C[C@H](Nc1ccnc(NCCOc2ccccc2)c1)c1ccccc1 | 0.4 |  |  |  |
| C[C@H](Nc1ccnc(NCCc2ccc(F)cc2)c1)c1ccccc1 | 0.4 |  |  |  |
| C[C@H](Nc1cc(NCCc2ccccc2)ccn1)c1ccccc1 | 3 |  |  |  |
| C[C@H](Nc1cncc(NCCc2ccc(F)cc2)c1)c1ccccc1 | 16 |  |  |  |
| C[C@H](Nc1cncc(NCCc2ccccc2)c1)c1ccccc1 | 13 |  |  |  |
| C[C@H](Nc1cccc(NCCOc2ccccc2)n1)c1ccccc1 | > 1000 |  |  |  |
| C[C@H](Nc1cc(NCCc2ccc(F)cc2)ncn1)c1ccccc1 | 5 |  |  |  |
| C[C@H](Nc1cccc(NCCOc2ccccc2)c1)c1ccccc1 | > 1000 |  |  |  |
| C[C@H](Nc1ccnc(NCCc2ccccc2)c1)c1ccccc1 | 0.3 |  |  |  |
| C[C@H](Nc1cccc(NCCc2ccccc2)c1)c1ccccc1 | > 1000 |  |  |  |
| C[C@H](Nc1cc(NCCOc2ccc(F)cc2)ncn1)c1ccccc1 | 5 |  |  |  |
| C[C@H](Nc1ccnc(NCCOc2ccc(F)cc2)n1)c1ccccc1 | 0.3 | > 1000 |  |  |
| C[C@H](Nc1cc(NCCOc2ccc(F)cc2)ccn1)c1ccccc1 | 0.4 | > 1000 | 13 |  |
| C[C@H](Nc1cc(NCCOc2ccccc2)ccn1)c1ccccc1 | 0.4 |  |  |  |
| C[C@H](Nc1cncc(NCCOc2ccc(F)cc2)c1)c1ccccc1 | 4 | > 1000 | 476 |  |
| C[C@H](Nc1ccnc(NCCc2ccccc2)n1)c1ccccc1 | 0.6 |  |  |  |
| C[C@H](Nc1ccnc(NCCOc2ccccc2)n1)c1ccccc1 | 2 |  |  |  |
| C[C@H](Nc1cc(NCCc2ccc(F)cc2)ccn1)c1ccccc1 | 4 |  |  |  |
| C[C@H](Nc1cncc(NCCOc2ccccc2)c1)c1ccccc1 | 4 |  |  |  |
| C[C@H](Nc1cccc(NCCc2ccccc2)n1)c1ccccc1 | > 1000 |  |  |  |
| C[C@H](Nc1ccnc(NCCOc2ccc(F)cc2)c1)c1ccccc1 | 0.2 | 370 | 15 |  |
| CC(Nc1nccc(NCCc2ccccc2)n1)c1ccccc1 (racemic) | 6 |  |  |  |
| CC(Nc1nccc(NCCOc2ccc(F)cc2)n1)c1ccccc1 (racemic) | 1 | > 1000 | 40 | 57 |
| CC(Nc1ccnc(NCCc2ccc(F)cc2)n1)c1ccccc1 (racemic) | 6 |  |  |  |
